Results: PMC6934184, “Selective DNA-PKcs inhibition extends the therapeutic index of localized radiotherapy and chemotherapy” (The Journal of Clinical Investigation, 2019)

Target: T1, CDC7/DBF4 (Homo sapiens, UniProt O00311)
T1 construct: purchased Thermo Fisher Scientific (Life Technologies) SelectScreen
Assay: SelectScreen LanthaScreen
Type: binding
Conditions: read-out: % displacement
Procedure, shortened: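 NU5455 was profiled across the SelectScreen Broad panel of kinase activity and binding assays. Z'LYTE reactions such as CSF1R ran at apparent Km ATP, while the Adapta CAMK1 assay used ATP listed as 10. Values are given as percent.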

T1 sequence (O00311 whole entry): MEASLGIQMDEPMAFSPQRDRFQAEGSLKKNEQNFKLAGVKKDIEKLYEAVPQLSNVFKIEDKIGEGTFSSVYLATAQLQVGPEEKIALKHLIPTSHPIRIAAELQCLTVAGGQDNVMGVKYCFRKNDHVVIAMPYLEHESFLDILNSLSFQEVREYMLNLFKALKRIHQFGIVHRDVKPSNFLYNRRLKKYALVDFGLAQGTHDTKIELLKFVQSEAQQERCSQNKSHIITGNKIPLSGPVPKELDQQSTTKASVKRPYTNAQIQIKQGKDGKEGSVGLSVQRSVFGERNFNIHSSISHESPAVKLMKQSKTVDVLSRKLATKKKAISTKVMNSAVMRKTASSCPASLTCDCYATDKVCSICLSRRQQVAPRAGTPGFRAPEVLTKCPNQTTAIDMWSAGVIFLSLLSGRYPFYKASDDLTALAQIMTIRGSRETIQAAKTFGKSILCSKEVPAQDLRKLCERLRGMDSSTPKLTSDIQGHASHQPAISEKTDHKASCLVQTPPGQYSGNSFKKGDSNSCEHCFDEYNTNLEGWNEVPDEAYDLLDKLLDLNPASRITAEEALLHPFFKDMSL
T1 sequence (Q9UBU7 whole entry partner): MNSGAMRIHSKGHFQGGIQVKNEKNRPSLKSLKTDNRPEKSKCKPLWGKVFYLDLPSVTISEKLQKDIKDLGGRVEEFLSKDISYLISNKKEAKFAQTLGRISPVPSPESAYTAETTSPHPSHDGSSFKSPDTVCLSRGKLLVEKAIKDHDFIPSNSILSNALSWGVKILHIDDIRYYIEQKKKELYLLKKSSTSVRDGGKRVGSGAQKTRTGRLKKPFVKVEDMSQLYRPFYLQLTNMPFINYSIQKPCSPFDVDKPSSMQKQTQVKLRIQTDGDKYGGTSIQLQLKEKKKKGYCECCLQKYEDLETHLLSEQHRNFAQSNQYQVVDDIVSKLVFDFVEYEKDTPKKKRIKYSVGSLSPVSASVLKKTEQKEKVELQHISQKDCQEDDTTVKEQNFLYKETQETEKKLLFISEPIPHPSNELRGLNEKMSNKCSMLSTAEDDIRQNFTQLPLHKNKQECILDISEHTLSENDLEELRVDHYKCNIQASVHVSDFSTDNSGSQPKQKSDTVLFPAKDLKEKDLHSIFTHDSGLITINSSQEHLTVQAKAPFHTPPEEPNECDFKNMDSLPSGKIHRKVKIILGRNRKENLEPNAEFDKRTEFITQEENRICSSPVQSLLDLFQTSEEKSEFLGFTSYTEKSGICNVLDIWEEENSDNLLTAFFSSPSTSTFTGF

**Q.** `CN(C(=O)CN1CCOCC1)c1ccc2sc3c(-c4cccc5c(=O)cc(N6CC7CCC(C6)O7)oc45)cccc3c2c1` [NU5455] was tested. Which inhibition at 1 µM did it give?
**A.** 6%
